≈ marks a conversion by molar mass, not a printed value. Read-outs that look alike come from different tables or passages of the source.
Legend:
ovine COX-1 (oCOX-1) = biological target: T1, ovine COX-1 (oCOX-1) (Ovis aries, UniProt P05979); assay: LCMS-based COX-1 enzymatic inhibition assay (PGE2 quantification); assay type: biochemical
T1 construct: purchased Cayman Chemicals (Ann Arbor, Mich.)
T1 sequence (P05979 25-600): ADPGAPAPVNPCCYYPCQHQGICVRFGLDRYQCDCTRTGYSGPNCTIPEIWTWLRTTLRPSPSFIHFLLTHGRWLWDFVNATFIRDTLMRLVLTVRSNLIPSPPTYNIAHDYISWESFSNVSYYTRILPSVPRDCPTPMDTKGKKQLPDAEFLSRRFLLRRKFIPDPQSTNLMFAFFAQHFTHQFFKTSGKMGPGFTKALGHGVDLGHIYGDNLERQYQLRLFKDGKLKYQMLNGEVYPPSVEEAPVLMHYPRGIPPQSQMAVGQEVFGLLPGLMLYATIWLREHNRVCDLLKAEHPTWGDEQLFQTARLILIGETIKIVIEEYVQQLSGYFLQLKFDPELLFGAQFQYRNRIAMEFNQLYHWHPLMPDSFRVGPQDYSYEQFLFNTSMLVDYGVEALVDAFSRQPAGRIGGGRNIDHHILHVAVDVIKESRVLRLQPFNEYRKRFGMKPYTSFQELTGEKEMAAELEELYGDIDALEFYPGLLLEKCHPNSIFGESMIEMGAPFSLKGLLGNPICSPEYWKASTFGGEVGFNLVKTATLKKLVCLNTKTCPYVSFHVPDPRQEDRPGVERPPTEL
Outline: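 PGE2 formed from arachidonic acid (final 5 μM, 2 min) was measured by LC-MS-MS against DMSO controls. Enzyme (oCOX-1 0.1 μg or hCOX2 0.2 μg) with hematin/epinephrine cofactors at pH 8.0 was given 10 min at 37 °C with compound first. Twelve-point curves run three times gave IC50.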

[1] = mouse plasma protein binding (PPB) assay; assay type: in vitro ADME; details: average, read-out: Mouse Plasma Protein Binding % Bound Avg (converted)
Description: (§1) We have adapted a previously reported cyclooxygenase enzymatic assay utilizing LCMS quantification of PGE2 as the product of COX-1 and COX2 catalyzed conversion of arachidonic acid to evaluate the binding properties of newly synthesized ligands [Cao, 2011]. These optimized and miniaturized (384-well plates) LCMS-based COX-1 and COX2 enzymatic assays enabled us to quickly evaluate newly synthesized ligands for COX2 binding affinity and selectivity vs COX-1. Using a shorter ligand-enzyme incubation time in the LCMS assay (2 minutes vs 10 minutes) also permitted us to prioritize ligands with faster binding kinetics. Considering the relatively slow on-rate kinetics of known coxibs, due to their 3-step binding mechanism [Marnett, 2009], we believe that optimizing this critical parameter will be key to the successful development of a COX2 PET tracer. Using these enzymatic assays, we have evaluated>200 newly synthesized ligands against COX2 and >20 ligands against COX-1. Another critical property necessary for a good PET radiotracer is to have low non-specific binding (NSB) to increase the free fraction and maximize the signal to noise ratio. This property can be evaluated using in-vitro protein binding assays, and we have now evaluated>50 newly synthesized ligands in mouse, rat and human plasma protein binding (PPB) assays as well as >15 ligands in a mouse brain protein binding (BPB) assay.

[2] = rat plasma protein binding (PPB) assay; assay type: in vitro ADME; details: average, read-out: Rat Plasma Protein Binding % Bound Avg (converted)
Outline: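 In vitro protein binding; fu determined. Matrices: mouse/rat/human plasma (PPB), mouse brain (BPB). Used to gauge NSB.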

[3] = mouse brain protein binding (BPB) assay; assay type: in vitro ADME
Description: as §1

PBS Solubility (no DMSO) = assay type: physicochemical; details: aqueous buffer, thermodynamic from solid, average
[4] = Human Microsome Stability; assay type: in vitro ADME; details: human microsomes
[5] = Mouse Plasma Protein Stability (% Remaining); assay type: in vitro ADME; details: average
Rat Microsome Stability = assay type: in vitro ADME; details: rat microsomes
MDR1 = assay: MDR1-MDCKII permeability and efflux; assay type: in vitro ADME; details: dog, MDCK-MDR1; for Papp A→B: read-out: MDR1-MCKII Papp A-B; for Papp B→A: read-out: MDR1-MCKII Papp B-A
[6] = in-vitro protein binding: free fraction / fraction unbound, matrix and species not given; assay type: in vitro ADME; details: compared to MC1; comparator not always stated
Description: as §1

[7] = 10 minutes, readout pge2/pge2d4 area ratio, average LLE
[8] = 10 minutes, readout pge2/pge2d4 area ratio, average, read-out: COX1 10 minutes pge2/pge2d4 area ratio Avg. IC50
[9] = 10 minutes, readout pge2 area (counts), average LLE
[10] = 10 minutes, readout pge2 area (counts), average, read-out: COX1 10 minutes pge2 area (counts) Avg. IC50

Compound	COX1 10 minutes pge2/pge2d4 area ratio Avg. LLE (ovine COX-1 (oCOX-1); [7])	IC50 (ovine COX-1 (oCOX-1); [8])	COX1 10 minutes pge2 area (counts) Avg. LLE (ovine COX-1 (oCOX-1); [9])	fraction unbound [1]	fraction unbound [2]	fraction unbound [3]	solubility (PBS Solubility (no DMSO))	Human Microsome Stability % Remaining Avg [4]	Mouse Plasma Protein Stability % Remaining Avg [5]	IC50 (ovine COX-1 (oCOX-1); [10])	IC50 (ovine COX-1 (oCOX-1))	Rat Microsome Stability % Remaining Avg (Rat Microsome Stability)	efflux ratio (MDR1)	Papp A→B (MDR1)	Papp B→A (MDR1)	COX1 10 minutes pge2/pge2d4 area ratio Avg. LLE (ovine COX-1 (oCOX-1); 10 minutes, pge2/pge2d4 area ratio, head of this section not shown, inferred)	COX1 10 minutes pge2 area (counts) Avg. LLE (ovine COX-1 (oCOX-1); 10 minutes, pge2 area (counts), head of this section not shown, inferred)	IC50 (ovine COX-1 (oCOX-1); 10 minutes, pge2 area (counts), head of this section not shown, inferred, read-out: COX1 10 minutes pge2 area (counts) Avg. IC50)	improvement in free fraction (fraction unbound) [6]
CS(=O)(=O)c1ccc(-c2cccc(/C=C\c3ccoc3)n2)cc1 [Compound 35, 2-[(Z)-2-(furan-3-yl)ethenyl]-6-(4-methanesulfonylphenyl)pyr]	1.089	22.4 µM	0.724	0.079	0.052	0.011	37 µM (≈ 12 µg/mL)	19%	99.2%	–	–	–	–	–	–	–	–	–	–
CS(=O)(=O)c1ccc(-c2cncc(OCc3cccs3)n2)cc1 [Compound 19]	2.582	10.4 µM	2.539	0.02	0.015	–	5.8 µM (≈ 2.01 µg/mL)	–	92.8%	10.9 µM	–	–	–	–	–	–	–	–	–
COc1ncc(NCc2cccs2)nc1-c1ccc(S(C)(=O)=O)cc1 [Compound 29]	1.794	–	3.31	0.025	0.019	–	2.8 µM (≈ 1.05 µg/mL)	24%	93.2%	0.0484 µM	52 µM	2.2%	–	–	–	–	–	–	–
COc1ncc(NCc2ccoc2)nc1-c1ccc(S(C)(=O)=O)cc1 [Compound 44]	2.274	–	2.41	0.045	0.044	–	28 µM (≈ 10.1 µg/mL)	–	105.7%	38.1 µM	52 µM	5.3%	1.2	39.6 ×10⁻⁶ cm/s	47.2 ×10⁻⁶ cm/s	–	–	–	–
COc1cc(NCc2cccs2)nc(-c2ccc(S(C)(=O)=O)cc2)c1 [Compound 50]	1.091	32.3 µM	0.9785	0.031	–	–	–	–	98.9%	42 µM	–	–	–	–	–	–	–	–	–
CS(=O)(=O)c1ccc(-c2cc(F)cc(NCc3ccco3)n2)cc1 [Compound 14]	1.4251	40.3 µM	1.516	0.022	0.024	–	6.1 µM (≈ 2.11 µg/mL)	21%	99%	32.7 µM	–	–	–	–	–	–	–	–	–
CS(=O)(=O)c1ccc(-c2cccc(OCc3ccoc3)n2)cc1 [Compound 16]	1.139	39.9 µM	1.072	0.011	0.031	–	10 µM (≈ 3.29 µg/mL)	24%	102%	46.5 µM	–	–	–	–	–	–	–	–	–
CS(=O)(=O)c1ccc(-c2cc(F)cc(NCc3ccoc3)n2)cc1 [Compound 34]	1.4613	30.1 µM	1.484	–	0.025	–	12 µM (≈ 4.16 µg/mL)	48%	–	28.7 µM	–	–	–	–	–	–	–	–	–
Cc1occc1CNc1cccc(-c2ccc(S(C)(=O)=O)cc2)n1 [Compound 21]	1.391	28.7 µM	1.134	–	0.042	–	18 µM (≈ 6.16 µg/mL)	36%	–	–	–	–	–	–	–	–	–	–	–
COc1ccc(NCc2cccs2)nc1-c1ccc(S(C)(=O)=O)cc1 [Compound 17]	–	–	0.884	0.033	0.047	0.012	1.3 µM (≈ 0.487 µg/mL)	–	102%	–	–	0.2%	–	–	–	–	–	–	–
CS(=O)(=O)c1ccc(-c2cncc(NCc3cccs3)n2)cc1 [Compound 98]	–	9.89 µM	–	–	–	0.02	–	23.8%	–	–	–	20.3%	1.7	49.7 ×10⁻⁶ cm/s	83.8 ×10⁻⁶ cm/s	2.943	2.879	10.7 µM	3 fold
CS(=O)(=O)c1ccc(-c2ccc(F)c(NCc3ccoc3)n2)cc1 [Compound 33]	1.418	33.3 µM	1.362	–	0.025	–	0.64 µM (≈ 0.222 µg/mL)	40%	–	37.9 µM	–	–	–	–	–	–	–	–	–
CS(=O)(=O)c1ccc(-c2nc(NCc3cccs3)cc3ccoc23)cc1 [Compound 2]	−0.046	–	−0.02512	0.004	0.009	–	0.31 µM (≈ 0.119 µg/mL)	27%	108%	49.6 µM	52 µM	–	–	–	–	–	–	–	–
CS(=O)(=O)c1ccc(-c2ccc(F)c(NCc3ccco3)n2)cc1 [Compound 15]	1.314	–	1.404	–	0.02	–	4.5 µM (≈ 1.56 µg/mL)	45.5%	–	34.4 µM	52 µM	–	–	–	–	–	–	–	–
CS(=O)(=O)c1ccc(-c2cccc(OCc3cccs3)n2)cc1 [Compound 1, 2-(4-methanesulfonylphenyl)-6-[(thiophen-2-yl)methoxy]pyridine]	1.251	11.5 µM	1.136	0.004	0.006	–	1.1 µM (≈ 0.38 µg/mL)	38%	119.5%	13.8 µM	–	–	0.9	33.7 ×10⁻⁶ cm/s	29.9 ×10⁻⁶ cm/s	–	–	–	–
CS(=O)(=O)c1ccc(-c2cccc(NCc3cccs3)n2)cc1 [Compound 24]	–	34.7 µM	–	0.016	0.025	–	2.1 µM (≈ 0.723 µg/mL)	18%	114.1%	33.4 µM	–	6.9%	–	–	–	–	–	–	–
CS(=O)(=O)c1ccc(-c2cccc(NCc3ccc(F)o3)n2)cc1 [Compound 23]	3.122	0.323 µM	3.085	–	0.046	–	24 µM (≈ 8.31 µg/mL)	11%	–	0.417 µM	–	–	–	–	–	–	–	–	–

— patent publication US20220348590A1, “CYCLOOXYGENASE-2 INHIBITORS AND USES THEREOF” (The Board Institute, Inc., priority 2019, published 2022)
